Source: patent US12076312B2, “Repurposing anti-androgen therapy for COVID-19 and immunotherapy” (Wisconsin Alumni Research Foundation, priority 2021, dated 2024)

Experiments:
[1] = system: AR protein translocation in A549; assay: AR immunofluorescent imaging, nuclear translocation; conditions: A549, 1 nM R1881, 24 h
Method: (§4) After incubating in blocking buffer (5% normal goat serum and 0.2% fish skin gelatin in 0.2% Tween/PBS) for 1 hour at room temperature, the cells were stained with primary antibodies overnight at 4° C. […] Immunofluorescence images were captured on Leica TCS WLL SP8 Laser scanning confocal microscopy (Leica Microsystems) using 63× oil immersion objective (Scale bar: 10 μm). Multiple images were taken at different fields of coverslip to obtain at least 100 cells for AR quantification. The sum of pixel intensities of AR signal within the nucleus and cytoplasm was quantified using a custom MATLAB program (R2017b, MathWorks). Briefly, the program utilized the actin and DRAQ5 channels to create masks for the cytoplasm and nucleus regions, respectively. These masks were then used to determine the AR signal within cytoplasm and nucleus, and the nucleus-to-cytoplasm ratio of AR signal was calculated by dividing the AR signal inside the nucleus by the AR signal within the entire cell (nucleus and cytoplasm).

[2] = system: AR protein translocation in H2228; assay: as above; conditions: H2228, 1 nM R1881, 24 h
Method: as §4

[3] = system: AR mRNA in NCI-H2228 lung cancer cells; assay: AR mRNA level by qRT-PCR; assay type: cell-based
Method: (§1) From two independent biological experiments with 3 replicates (n=6), RNA samples were collected with TRIzol reagent (Invitrogen) and isolated using RNeasy Mini Kit (Qiagen). RNA concentrations were measured using A260 nm/A280 nm spectroscopy on the Nanodrop ND-1000 (Thermo-scientific). For each RNA sample, 1000 ng of RNA was reversed transcripted into first-strand cDNA using the High-Capacity RNA-to-cDNA Kit (Applied Biosystems).
(§2) Three independent biological replicates of mRNA samples were collected for each condition, and three technical replicates were run for each sample in qRT-PCR. The fold changes and p-values were calculated with the ΔΔCt method32 and two-sample t-test, respectively. Ubiquitin C (UBC) was used as the housekeeping gene for normalization.

[4] = system: AR mRNA in A549 lung cancer cells; assay: AR mRNA level by qRT-PCR; assay type: cell-based
Method: as §1, §2

[5] = system: AR responsive genes in NCI-H2228 cells; assay: AR signaling gene panel qRT-PCR; assay type: cell-based; conditions: NCI-H2228, enzalutamide 5 μM, 24 h (FIG. 2C)
Method: as §1
(§3) Changes in expression levels of AR signaling genes were screened using Bio-Rad's PrimePCR pathway 384-well panel: Androgen Receptor Signaling SAB target list (Cat #10047228) and Androgen Receptor Nuclear Signaling (Cat #10025068). […] Two independent biological replicates of mRNA samples were collected for each condition, and one reaction was run for each sample. If necessary, additional technical replicates were run to rule out any outlier. Relative mRNA expressions and p-values were calculated using the ΔΔCt method and two-sample t-test in Bio-Rad CFX Maestro program (version: 4.0.2325.0418). […] The stabilities of housekeeping genes were checked using the geNorm algorithm provided in CFX Maestro. M values of all housekeeping genes used in this study are less than 0.5, which is considered ideal. Log 2-transformed expression levels and −log 10 (p-value) of all treatment groups were plotted as Bubble and Color map graph in the Origin 2020 software.

[6] = system: AR responsive genes in A549 cells; assay: AR signaling gene panel qRT-PCR; assay type: cell-based; conditions: A549, enzalutamide 5 μM, 24 h
Method: as §1, §3

[7] = molecular target: AR (Homo sapiens, UniProt P10275); conditions: cited from earlier work
[8] = molecular target: mutant AR forms (F877L mutation) (Homo sapiens, UniProt P10275, F877L); conditions: F877L mutation that confers resistance to enzalutamide; cited from earlier work
mutant AR forms (F877L mutation), sequence (P10275 whole entry F877L): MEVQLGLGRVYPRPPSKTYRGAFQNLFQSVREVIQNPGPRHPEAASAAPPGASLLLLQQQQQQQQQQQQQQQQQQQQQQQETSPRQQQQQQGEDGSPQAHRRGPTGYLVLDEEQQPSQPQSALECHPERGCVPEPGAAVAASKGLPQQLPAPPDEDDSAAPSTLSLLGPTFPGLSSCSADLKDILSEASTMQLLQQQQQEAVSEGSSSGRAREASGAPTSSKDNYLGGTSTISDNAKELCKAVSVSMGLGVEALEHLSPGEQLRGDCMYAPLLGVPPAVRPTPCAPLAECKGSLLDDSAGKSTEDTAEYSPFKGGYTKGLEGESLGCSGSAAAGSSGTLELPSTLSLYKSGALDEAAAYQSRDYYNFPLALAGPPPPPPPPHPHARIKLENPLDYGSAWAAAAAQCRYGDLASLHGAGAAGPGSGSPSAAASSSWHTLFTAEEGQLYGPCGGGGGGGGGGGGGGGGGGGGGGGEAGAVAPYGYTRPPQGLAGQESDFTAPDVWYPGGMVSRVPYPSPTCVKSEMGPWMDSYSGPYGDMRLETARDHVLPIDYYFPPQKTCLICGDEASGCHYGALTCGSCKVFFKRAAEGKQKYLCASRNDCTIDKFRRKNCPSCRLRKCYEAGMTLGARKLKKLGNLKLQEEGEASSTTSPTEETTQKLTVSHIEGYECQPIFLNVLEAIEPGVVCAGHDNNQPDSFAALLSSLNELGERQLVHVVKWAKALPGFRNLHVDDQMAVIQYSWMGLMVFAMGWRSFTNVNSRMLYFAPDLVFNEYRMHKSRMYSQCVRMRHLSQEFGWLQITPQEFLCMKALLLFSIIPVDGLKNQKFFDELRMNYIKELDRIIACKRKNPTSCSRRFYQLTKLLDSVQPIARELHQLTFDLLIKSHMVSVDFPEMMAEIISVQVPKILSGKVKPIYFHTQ

AR, sequence (P10275 whole entry): as the sequence (P10275 whole entry F877L) above, with L877F counted along it

With `C[C@]1(O)CC[C@H]2[C@@H]3CCC4=CC(=O)CCC4=C3C=C[C@@]21C` [R1881, Metribolone] the “AR transport to the nucleus” value [1] was “efficiently transported to the nucleus”, the “AR transport to the nucleus” value [2] was “efficiently transported to the nucleus” and the AR expression ([3]; female H2228, androgen (R1881) stimulation) was “minimal changes”. For the same compound, the “AR mRNA level” value ([4]; male A549, R1881 1 nM, 2, 4, 8 and 24 h vs control) was “temporally downregulated”.

For `CNC(=O)c1ccc(N2C(=S)N(c3ccc(C#N)c(C(F)(F)F)c3)C(=O)C2(C)C)cc1F` [enzalutamide], the IL6 expression [5] was “significantly upregulated”, the “FOS expression log 2FC” value ([6]; p-value=0.008) was −1.627 log 2FC and the “IL6 expression log 2FC” value ([6]; p-value=0.023) was −2.41 log 2FC. The “MAF expression log 2FC” value ([6]; p-value=0.035) was 2.44 log 2FC, the AR expression ([3]; H2228, enzalutamide without ligand stimulation) was “increased AR expression” and the AR expression ([4]; A549, enzalutamide without ligand stimulation) was “increased AR expression”. The “R1881-induced downregulation of AR expression” value ([4]; male A549, pre-treatment with enzalutamide 30 min before 1 nM R1881) was “blocked”.

In the case of `CC(O)c1cc(C(=O)N[C@@H](C)Cn2ccc(-c3ccc(C#N)c(Cl)c3)n2)[nH]n1` (stereo partly shown) [Darolutamide], the “greater affinity for AR compared with enzalutamide” value [7] is given as 8 fold and the “activity against mutant AR forms” value [8] is given as “Remains antagonistic”.
